From ChEMBL document CHEMBL1641485, “Chromone 3-phenylcarboxamides as potent and selective MAO-B inhibitors” (Bioorg Med Chem Lett, 2011) come the findings set out here.

The structures appear in SMILES notation.

Data set [1] deals with T1, Amine oxidase [flavin-containing] B (Homo sapiens, UniProt P27338).
T1 sequence (P27338 whole entry): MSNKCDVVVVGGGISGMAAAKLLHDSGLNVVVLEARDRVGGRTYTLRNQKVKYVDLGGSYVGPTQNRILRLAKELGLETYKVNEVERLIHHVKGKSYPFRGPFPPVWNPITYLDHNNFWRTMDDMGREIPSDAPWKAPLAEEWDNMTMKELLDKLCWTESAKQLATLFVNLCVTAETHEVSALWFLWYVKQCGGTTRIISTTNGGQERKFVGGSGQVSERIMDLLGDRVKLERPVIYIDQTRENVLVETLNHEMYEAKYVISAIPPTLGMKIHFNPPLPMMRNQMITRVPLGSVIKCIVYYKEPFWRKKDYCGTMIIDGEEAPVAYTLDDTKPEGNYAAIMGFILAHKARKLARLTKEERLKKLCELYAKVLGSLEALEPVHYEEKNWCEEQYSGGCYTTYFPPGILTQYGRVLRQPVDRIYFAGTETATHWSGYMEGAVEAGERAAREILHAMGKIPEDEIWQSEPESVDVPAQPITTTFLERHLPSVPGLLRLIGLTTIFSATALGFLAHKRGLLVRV
The data set can be described thus: Inhibition of human recombinant MAOB expressed in baculovirus-infected BTI insect cells at 100 uM after 15 mins by fluorimetric assay. Conditions: 0.25 h; call rule not given here.

In data set [2] the target is T2, Amine oxidase [flavin-containing] A (Homo sapiens, UniProt P21397).
T2 sequence (P21397 whole entry): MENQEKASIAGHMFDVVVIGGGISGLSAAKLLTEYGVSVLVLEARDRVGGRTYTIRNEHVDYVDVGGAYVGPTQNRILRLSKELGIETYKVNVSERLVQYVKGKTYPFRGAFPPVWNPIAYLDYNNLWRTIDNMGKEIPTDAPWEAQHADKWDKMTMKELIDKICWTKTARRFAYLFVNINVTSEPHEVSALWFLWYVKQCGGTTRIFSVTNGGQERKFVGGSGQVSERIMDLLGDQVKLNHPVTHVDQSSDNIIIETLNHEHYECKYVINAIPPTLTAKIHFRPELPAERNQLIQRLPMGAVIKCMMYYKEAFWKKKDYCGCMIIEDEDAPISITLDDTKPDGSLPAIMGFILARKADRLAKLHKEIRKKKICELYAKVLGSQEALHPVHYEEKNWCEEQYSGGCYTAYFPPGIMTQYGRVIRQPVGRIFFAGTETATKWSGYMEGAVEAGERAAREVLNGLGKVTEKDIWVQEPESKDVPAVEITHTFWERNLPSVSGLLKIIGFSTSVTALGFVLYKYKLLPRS
Put plainly: Inhibition of human recombinant MAOA expressed in baculovirus-infected BTI insect cells at 100 uM after 15 mins by fluorimetric assay. Conditions: 0.25 h.

The species entered for a further data set is Homo sapiens. The data set can be described thus: Selectivity ratio of IC50 for human recombinant MAOA to IC50 for human recombinant MAOB.
Data set [3] addresses T1, Amine oxidase [flavin-containing] B. The data set can be described thus: Inhibition of human recombinant MAOB expressed in baculovirus-infected BTI insect cells after 15 mins by fluorimetric assay. Format: cell-based.

Turning to `O=C(Nc1ccccc1)c1cc(=O)c2ccccc2o1`, the “inhibition (INH)” value in data set [1] and in data set [2] was “Not Active” each time.
For the molecule `CSc1ccc(NC(=O)c2cc(=O)c3ccccc3o2)cc1`, the “inhibition (INH)” value in data set [1] and in data set [2] was “Not Active” throughout.
In the case of `COc1ccc(NC(=O)c2coc3ccccc3c2=O)cc1`, the Ratio IC50 in the data set filed under Homo sapiens is over 222. Also, the “inhibition (INH)” value in data set [2] is reported as “Not Active”. Also, the half-maximal inhibitory concentration (IC50) in data set [3] was found to be 450 nM.
With `O=C(Nc1ccc(I)cc1)c1cc(=O)c2ccccc2o1`, the “inhibition (INH)” value in data set [1] and in data set [2] was “Not Active” each time.
As to `COc1ccc(NC(=O)c2cc(=O)c3ccccc3o2)cc1`, the “inhibition (INH)” value in data set [1] and in data set [2] was “Not Active” in each case.
In the case of `Cc1ccc(NC(=O)c2cc(=O)c3ccccc3o2)cc1`, the “inhibition (INH)” value in data set [1] and in data set [2] was “Not Active” each time.
With `CSc1ccc(NC(=O)c2coc3ccccc3c2=O)cc1`, the Ratio IC50 in the data set filed under Homo sapiens was over 833. In addition, the “inhibition (INH)” value in data set [2] is on record as “Not Active”. Moreover, in data set [3], the IC50 was 120 nM.
